The record followed here is ChEMBL document CHEMBL1201862, “PubChem BioAssay data set” (2004).

Among the targets are Cytochrome P450 2C9 (Homo sapiens, UniProt P11712); Cytochrome P450 2D6 (Homo sapiens, UniProt P10635); Cytochrome P450 3A4 (Homo sapiens, UniProt P08684).
A further data set deals with T1, Cytochrome P450 1A2 (Homo sapiens, UniProt P05177).
T1 sequence (P05177 whole entry): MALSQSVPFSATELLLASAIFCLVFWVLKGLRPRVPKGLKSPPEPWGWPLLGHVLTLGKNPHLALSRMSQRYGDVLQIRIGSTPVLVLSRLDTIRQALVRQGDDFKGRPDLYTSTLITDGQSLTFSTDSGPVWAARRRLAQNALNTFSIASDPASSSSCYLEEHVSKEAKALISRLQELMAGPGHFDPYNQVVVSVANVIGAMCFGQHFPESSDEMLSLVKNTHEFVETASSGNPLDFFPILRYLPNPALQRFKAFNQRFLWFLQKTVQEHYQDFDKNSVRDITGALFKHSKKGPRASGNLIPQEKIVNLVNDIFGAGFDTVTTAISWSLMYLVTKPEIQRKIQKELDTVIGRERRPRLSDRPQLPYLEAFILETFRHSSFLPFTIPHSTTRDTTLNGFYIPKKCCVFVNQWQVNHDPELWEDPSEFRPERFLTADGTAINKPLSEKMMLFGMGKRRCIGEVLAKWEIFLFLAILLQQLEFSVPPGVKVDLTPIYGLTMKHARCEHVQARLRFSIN

Data set [1] can be described thus: CRF-BP/CRF-R2 complex antagonists, dose response, cell-based, uHTS hits, 384-well (AID 651639). The format is functional, Homo sapiens. The settings on record: read-out: IC50_Mean.
Data set [2] deals with T2, Corticotropin-releasing factor receptor 2/Corticotropin-releasing factor-binding protein (Homo sapiens, UniProt P24387+Q13324).
T2 sequence (Q13324 whole entry): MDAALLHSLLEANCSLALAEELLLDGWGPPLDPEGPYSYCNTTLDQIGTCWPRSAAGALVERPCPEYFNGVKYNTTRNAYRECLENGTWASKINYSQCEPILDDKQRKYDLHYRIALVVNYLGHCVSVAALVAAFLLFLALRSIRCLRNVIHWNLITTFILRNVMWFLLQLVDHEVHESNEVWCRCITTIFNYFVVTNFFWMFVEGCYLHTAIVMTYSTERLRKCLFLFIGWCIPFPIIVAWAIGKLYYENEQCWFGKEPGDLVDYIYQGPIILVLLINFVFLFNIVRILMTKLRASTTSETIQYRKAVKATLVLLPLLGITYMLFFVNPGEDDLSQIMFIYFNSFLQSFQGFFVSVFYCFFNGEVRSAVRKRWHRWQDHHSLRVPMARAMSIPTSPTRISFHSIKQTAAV
T2 sequence (P24387 whole entry): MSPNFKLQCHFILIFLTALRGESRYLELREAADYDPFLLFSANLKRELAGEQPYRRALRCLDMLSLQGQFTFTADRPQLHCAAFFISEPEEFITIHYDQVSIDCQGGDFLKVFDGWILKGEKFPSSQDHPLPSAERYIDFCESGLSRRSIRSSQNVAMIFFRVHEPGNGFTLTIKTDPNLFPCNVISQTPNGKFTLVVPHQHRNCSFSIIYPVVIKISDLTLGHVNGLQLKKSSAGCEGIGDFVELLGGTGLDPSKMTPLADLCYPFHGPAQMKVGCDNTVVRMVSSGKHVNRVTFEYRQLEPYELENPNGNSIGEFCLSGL
The experiment in a line: Dose Response confirmation of uHTS hits for small molecule antagonists of the CRF-binding protein and CRF-R2 receptor complex. Format: functional. The following applies: read-out: IC50_Mean.

Data set [3] deals with T2, Corticotropin-releasing factor receptor 2/Corticotropin-releasing factor-binding protein. The experiment in a line: activators of CRF receptor 2 with binding protein – uHTS hits, confirmation (AID 602473). The settings on record: read-out: EC50_Mean. Format: functional.
A further data set concerns Vero. The experiment in a line: Vero cell cytotoxicity, cytotoxicity control for flavivirus capping enzyme inhibitors (AID 588742). Format: functional. The settings on record: Chlorocebus sabaeus.
The target in a further data set is Genome polyprotein (dengue virus type 2, UniProt P29990). The experiment in a line: Dengue-2 NS5 methyltransferase inhibitors, primary screen, biochemical, confirmation dose response (AID 588689). Format: functional.
The target in data set [4] is T3, Type-1 angiotensin II receptor (Homo sapiens, UniProt P30556).
T3 sequence (P30556 whole entry): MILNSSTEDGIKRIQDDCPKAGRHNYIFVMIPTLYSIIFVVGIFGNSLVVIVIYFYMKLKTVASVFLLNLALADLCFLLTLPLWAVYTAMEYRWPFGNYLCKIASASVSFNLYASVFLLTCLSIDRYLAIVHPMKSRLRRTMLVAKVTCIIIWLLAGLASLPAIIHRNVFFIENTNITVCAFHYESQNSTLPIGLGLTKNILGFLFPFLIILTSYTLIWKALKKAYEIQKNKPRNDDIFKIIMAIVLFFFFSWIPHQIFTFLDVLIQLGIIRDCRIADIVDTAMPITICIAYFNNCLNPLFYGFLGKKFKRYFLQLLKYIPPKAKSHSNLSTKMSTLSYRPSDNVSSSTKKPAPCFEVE
The experiment in a line: AT1 receptor antagonists, dose response, selectivity assay for APJ receptor antagonist project, cell-based, uHTS hits (AID 463214).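 Also: antagonist potency against angiotensin II stimulated AT1 response.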 The format is functional.

For another data set, the target named is Beta-galactosidase (Escherichia coli, UniProt Q8VNN2). The experiment in a line: PubChem AID 485352. Format: functional.
A further data set relates to HEK293. In words: inhibitors of LMP1-driven NF-kB reporter, dose response, cell-based, HEK293, luciferase, cherry-pick (AID 588343). The following applies: Homo sapiens. Format: functional.
Data set [5] deals with BJ. In words: cytotoxicity toward BJ-TERT-LT-ST fibroblasts, dose response, cell-based, RAS-independent, luminescence (AID 1935).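 Also: BJ fibroblasts immortalized with TERT plus LT and ST oncogenes.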 The settings on record: Homo sapiens. The format is functional.
The nature of data set [6]: cytotoxicity toward DRD oncogenic fibroblasts, dose response, cell-based, non-viral oncogenic, luminescence (AID 1934). Format: functional. The following applies: Homo sapiens.
For data set [7], the system named is BJ. The experiment in a line: cytotoxicity toward BJ-TERT fibroblasts, dose response, cell-based, RAS-independent, luminescence (AID 1933). Format: functional. The settings on record: Homo sapiens.
The subject of data set [8] is BJ. The experiment in a line: cells. The format is functional, cell-based. The settings on record: Homo sapiens.
The target in data set [9] is NAD-dependent protein deacylase sirtuin-5, mitochondrial (Homo sapiens, UniProt Q9NXA8). In words: SIRT5 desuccinylase inhibitors, dose response, biochemical, fluorescence imaging, cherry-pick, set 5 (AID 720591).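 Also: desuccinylation of succinyl peptide AMC substrate read as fluorescence after trypsin release; potency of inhibitors that lower fluorescence and may act on trypsin instead.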
A further data set deals with Cytochrome P450 2C19 (Homo sapiens, UniProt P33261). The experiment in a line: Cytochrome panel assay with activity outcomes. Panel member name: p450-cyp2c19 Compounds with AC50 equal or less than 10 uM are considered active. Format: functional. The following applies: read-out: AC50.
Data set [10] concerns the target T4, Rac GTPase-activating protein 1 (Homo sapiens, UniProt Q9H0H5).
T4 sequence (Q9H0H5 whole entry): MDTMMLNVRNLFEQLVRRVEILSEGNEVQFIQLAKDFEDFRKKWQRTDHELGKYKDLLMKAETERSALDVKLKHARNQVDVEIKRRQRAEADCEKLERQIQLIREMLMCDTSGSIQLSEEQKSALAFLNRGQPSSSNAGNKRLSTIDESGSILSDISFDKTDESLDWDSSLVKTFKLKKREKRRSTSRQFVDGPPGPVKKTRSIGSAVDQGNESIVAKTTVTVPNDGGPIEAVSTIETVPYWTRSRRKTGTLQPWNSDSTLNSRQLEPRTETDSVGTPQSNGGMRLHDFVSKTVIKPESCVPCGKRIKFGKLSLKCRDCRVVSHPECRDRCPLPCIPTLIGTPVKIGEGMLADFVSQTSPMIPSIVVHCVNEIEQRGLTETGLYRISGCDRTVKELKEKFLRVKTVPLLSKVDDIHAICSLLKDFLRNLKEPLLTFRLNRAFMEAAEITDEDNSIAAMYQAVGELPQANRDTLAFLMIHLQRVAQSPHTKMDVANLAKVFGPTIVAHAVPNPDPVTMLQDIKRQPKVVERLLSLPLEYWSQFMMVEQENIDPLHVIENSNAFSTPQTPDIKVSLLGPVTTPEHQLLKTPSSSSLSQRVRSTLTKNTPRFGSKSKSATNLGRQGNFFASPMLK
In words: MgcRacGAP GTPase-activating activity inhibitors, confirmation, biochemical, ADP Hunter fluorescence, primary and confirmatory (AID 624330). Format: functional.

Data set [11] is described as follows: ZM109 Env clade C HIV-1 fusion inhibitors, dose response, HeLa effector, CEM target cells, luciferase, cherry-pick (AID 652058). Format: functional, cell-based.
Data set [12] can be described thus: inhibitors of HIV Env-driven cell fusion, dose response, cherry-pick (AID 652057). Format: functional, cell-based.
Data set [13] is described as follows: CEM21 lymphoblast cell cytotoxicity, dose response, cytotoxicity control for viral fusion inhibitor project, CellTiter-Glo luminescence, cherry-picked (AID 652042).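 Also: potency for signal decrease meaning cytotoxicity.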 Format: functional, cell-based. On the technique in general: ATP-based viability assays read luminescence as a measure of living cells.
The nature of data set [14]: inhibitors of clade B AD8 Env fusion, dose response, cell-based, cherry-pick (AID 652062).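 Also: luciferase signal from cell-cell fusion driven by HIV-1 clade B AD8 Env; potency is for inhibitors of fusion seen as a drop in luminescence.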 The format is functional.
Data set [15] in a line: off-target signal loss in HeLa-CEM21 co-culture – HeLa F-luc CTL cells, cherry-picked, counter-screen for HIV-1 Env fusion inhibitor project, dose response (AID 652040).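 Also: potency for signal decrease marking cytotoxic or nonspecific inhibition.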 The format is functional, cell-based. For orientation: Counterscreens check selectivity or assay interference.

SMILES strings stand for the structures. Active and inactive are the calls of the source.

As usually defined, the AC50 is the midpoint of the concentration-response curve, whichever way the signal moves. As a reminder, the CC50 is the concentration at which the toxic effect on the cells reaches its halfway point.

NAD-dependent protein deacylase sirtuin-5, mitochondrial, sequence (Q9NXA8 whole entry): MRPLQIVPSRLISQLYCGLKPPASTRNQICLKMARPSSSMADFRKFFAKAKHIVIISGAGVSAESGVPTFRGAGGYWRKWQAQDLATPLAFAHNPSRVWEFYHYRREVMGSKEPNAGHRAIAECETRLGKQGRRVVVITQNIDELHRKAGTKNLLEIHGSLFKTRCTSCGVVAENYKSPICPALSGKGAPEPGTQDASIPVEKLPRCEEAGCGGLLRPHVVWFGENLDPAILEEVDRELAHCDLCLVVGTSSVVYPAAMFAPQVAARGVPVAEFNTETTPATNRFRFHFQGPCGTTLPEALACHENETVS
Cytochrome P450 2C9, sequence (P11712 whole entry): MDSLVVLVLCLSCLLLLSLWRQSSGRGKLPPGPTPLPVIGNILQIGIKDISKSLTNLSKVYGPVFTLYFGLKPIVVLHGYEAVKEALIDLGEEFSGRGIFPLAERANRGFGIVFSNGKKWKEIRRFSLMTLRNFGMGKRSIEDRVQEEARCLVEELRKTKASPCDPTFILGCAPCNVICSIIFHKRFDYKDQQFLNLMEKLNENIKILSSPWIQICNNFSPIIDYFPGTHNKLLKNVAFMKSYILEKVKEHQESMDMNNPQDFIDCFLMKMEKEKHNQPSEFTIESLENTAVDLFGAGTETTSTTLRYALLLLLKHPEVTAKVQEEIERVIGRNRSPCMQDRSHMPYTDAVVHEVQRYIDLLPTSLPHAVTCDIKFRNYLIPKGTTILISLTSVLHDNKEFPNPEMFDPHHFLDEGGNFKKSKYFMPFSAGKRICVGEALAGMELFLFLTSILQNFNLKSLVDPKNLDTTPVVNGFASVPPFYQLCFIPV
Cytochrome P450 3A4, sequence (P08684 whole entry): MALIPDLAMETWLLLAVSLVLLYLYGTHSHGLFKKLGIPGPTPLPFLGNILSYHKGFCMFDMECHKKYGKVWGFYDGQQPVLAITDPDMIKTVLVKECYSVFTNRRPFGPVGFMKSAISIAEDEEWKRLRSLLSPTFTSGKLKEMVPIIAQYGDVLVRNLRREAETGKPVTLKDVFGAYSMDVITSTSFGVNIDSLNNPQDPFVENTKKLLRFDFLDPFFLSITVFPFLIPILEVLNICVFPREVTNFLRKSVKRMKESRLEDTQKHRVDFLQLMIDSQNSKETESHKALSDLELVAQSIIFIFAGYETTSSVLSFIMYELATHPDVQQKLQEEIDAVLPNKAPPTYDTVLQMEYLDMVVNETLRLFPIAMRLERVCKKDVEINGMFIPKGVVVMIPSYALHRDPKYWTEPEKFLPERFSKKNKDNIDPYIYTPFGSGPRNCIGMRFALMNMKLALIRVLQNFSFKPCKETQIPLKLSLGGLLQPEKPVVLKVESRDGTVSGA
Beta-galactosidase, sequence (Q8VNN2 whole entry): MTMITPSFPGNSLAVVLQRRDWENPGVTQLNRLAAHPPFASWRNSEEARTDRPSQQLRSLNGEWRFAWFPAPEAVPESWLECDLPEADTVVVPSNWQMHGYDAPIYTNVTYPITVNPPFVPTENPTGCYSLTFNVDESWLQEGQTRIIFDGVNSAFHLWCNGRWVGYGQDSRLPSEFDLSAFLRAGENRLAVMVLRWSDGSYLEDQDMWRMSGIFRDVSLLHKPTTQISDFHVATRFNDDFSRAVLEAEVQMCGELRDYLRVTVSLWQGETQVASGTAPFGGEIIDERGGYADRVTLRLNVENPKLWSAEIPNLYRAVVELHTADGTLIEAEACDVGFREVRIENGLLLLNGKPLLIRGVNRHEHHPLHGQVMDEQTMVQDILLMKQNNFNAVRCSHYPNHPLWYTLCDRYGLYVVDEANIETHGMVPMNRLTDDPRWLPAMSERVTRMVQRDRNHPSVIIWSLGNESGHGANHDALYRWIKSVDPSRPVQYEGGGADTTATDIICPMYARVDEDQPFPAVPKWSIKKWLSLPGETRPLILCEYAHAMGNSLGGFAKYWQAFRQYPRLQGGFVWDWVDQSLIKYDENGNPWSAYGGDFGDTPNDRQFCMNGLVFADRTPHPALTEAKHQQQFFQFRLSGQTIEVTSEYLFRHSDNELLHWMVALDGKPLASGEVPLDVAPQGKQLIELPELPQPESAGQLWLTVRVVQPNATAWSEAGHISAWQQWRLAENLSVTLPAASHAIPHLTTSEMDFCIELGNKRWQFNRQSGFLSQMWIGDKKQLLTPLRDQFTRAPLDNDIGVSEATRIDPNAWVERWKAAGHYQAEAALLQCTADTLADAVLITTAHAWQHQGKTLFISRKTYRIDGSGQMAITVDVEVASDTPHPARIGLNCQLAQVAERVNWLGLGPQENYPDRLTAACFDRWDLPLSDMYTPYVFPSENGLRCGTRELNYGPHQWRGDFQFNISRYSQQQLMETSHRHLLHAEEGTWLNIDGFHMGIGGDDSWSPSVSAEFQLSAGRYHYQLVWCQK
Cytochrome P450 2D6, sequence (P10635 whole entry): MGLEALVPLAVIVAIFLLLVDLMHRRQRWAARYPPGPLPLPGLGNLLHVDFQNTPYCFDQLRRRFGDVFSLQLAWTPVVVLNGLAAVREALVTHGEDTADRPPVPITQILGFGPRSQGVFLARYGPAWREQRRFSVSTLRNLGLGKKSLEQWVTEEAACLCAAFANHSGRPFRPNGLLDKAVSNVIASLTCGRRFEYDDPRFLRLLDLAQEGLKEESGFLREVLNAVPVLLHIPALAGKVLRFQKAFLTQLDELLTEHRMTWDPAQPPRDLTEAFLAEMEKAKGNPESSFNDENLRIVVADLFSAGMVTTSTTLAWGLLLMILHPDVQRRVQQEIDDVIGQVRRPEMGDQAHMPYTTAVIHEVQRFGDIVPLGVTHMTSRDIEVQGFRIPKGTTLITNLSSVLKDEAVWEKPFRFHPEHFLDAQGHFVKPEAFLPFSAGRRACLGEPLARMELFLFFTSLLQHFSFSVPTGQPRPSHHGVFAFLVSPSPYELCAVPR
Cytochrome P450 2C19, sequence (P33261 whole entry): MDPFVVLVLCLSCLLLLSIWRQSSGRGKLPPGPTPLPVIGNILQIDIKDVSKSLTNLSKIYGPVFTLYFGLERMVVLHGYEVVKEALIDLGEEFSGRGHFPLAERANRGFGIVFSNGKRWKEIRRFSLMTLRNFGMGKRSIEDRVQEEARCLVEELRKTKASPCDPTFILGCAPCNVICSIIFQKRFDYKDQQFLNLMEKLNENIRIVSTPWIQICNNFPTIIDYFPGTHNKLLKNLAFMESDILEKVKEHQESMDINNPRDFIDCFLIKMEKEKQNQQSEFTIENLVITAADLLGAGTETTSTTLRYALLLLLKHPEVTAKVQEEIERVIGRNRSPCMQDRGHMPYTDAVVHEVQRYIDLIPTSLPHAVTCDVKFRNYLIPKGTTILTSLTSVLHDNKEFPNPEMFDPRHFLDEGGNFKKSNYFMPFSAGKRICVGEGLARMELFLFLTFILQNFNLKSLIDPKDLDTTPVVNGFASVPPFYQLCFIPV
Genome polyprotein, sequence (P29990 2492-3391 limits assumed): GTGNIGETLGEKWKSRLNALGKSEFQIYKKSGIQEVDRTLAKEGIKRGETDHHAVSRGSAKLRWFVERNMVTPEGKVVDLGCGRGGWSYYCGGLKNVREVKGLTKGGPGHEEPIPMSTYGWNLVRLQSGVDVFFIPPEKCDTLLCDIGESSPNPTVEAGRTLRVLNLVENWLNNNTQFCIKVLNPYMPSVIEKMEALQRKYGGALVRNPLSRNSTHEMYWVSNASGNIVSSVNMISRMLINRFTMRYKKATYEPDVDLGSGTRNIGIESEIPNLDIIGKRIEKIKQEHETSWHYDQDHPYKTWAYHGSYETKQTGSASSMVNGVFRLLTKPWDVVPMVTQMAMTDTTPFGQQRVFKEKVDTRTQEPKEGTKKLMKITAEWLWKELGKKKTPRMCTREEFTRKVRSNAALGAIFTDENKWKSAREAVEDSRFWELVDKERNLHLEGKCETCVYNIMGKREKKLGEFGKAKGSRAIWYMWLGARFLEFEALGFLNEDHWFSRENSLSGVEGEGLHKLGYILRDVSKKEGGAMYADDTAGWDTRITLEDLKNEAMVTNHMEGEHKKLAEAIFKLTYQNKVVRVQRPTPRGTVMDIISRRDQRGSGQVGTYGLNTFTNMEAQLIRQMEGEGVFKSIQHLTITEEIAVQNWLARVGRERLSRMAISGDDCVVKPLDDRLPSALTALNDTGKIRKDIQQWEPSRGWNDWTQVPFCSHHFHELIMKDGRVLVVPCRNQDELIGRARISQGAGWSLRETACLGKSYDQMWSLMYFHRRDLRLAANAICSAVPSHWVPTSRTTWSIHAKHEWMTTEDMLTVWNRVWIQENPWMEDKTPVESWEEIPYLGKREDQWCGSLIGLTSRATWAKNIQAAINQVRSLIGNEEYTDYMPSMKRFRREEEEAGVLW

For the compound `O=C(c1coc(=O)c2ccccc12)N1CCN(Cc2ccccc2)CC1`, the AC50 entry is “inconclusive” on Cytochrome P450 2C9 and 10 µM (inconclusive) on Cytochrome P450 1A2.

For the compound `Cc1nn(Cc2ccccc2)c(Cl)c1C(=O)NC1CCCc2ccccc21` (configuration not stated), the IC50 in [1] was 11.9 µM (active); in data set [2], 6.77 µM (active). Moreover, in [3], the EC50 was > 53 µM (inactive).

On to `CCOC(=O)c1sc(N2N=C(C)/C(=C\c3ccc(OCC(=O)OC)cc3)C2=O)nc1C`, for which the CC50 in the data set on Vero is 39.2 µM (active). In addition, on Genome polyprotein, the IC50 was 90.7 µM (active).

Turning to `CCCCNC(=S)NNC(=O)CCn1nc(C)c(Br)c1C`, the AC50 result on Cytochrome P450 2C9 is “inconclusive”. In addition, in data set [4], the IC50 was > 40 µM (not active). The EC50 at Beta-galactosidase is > 40 µM (inactive).

`CN(C)c1ccnc2sc(C(N)=O)c(N)c12`: the AC50 with HEK293 is 3.08 µM (active).

As for `Clc1ccccc1NN(Cc1ccncc1)c1ccccc1Cl`, the AC50 at Cytochrome P450 2D6 was 3.16 µM (inconclusive). Further, the IC50 in data set [1] was > 20 µM (inactive); in data set [2], < 0.368 µM (active). In addition, the EC50 in data set [3] is > 53 µM (inactive).

On to `CC(C)OC(=O)c1ccccc1C(=O)c1ccc(N)c([N+](=O)[O-])c1`, for which the EC50 was > 150 µM (not active) in the data set with BJ [5]; > 150 µM (not active) in [6]; > 150 µM (not active) with BJ [7]; > 150 µM (not active) in the data set with BJ [8]; > 53 µM (inactive) in data set [3]. Besides, the IC50 was > 20 µM (inactive) in [1] and 38.6 µM (active) in [2].

Turning to `COc1ccc(C(=O)Nc2cc(O)nc3ncnn23)cc1`, in data set [9], the AC50 is 8.75 µM (active).

For `Cc1cccc(Oc2coc3cc(OC(=O)c4cc5ccccc5oc4=O)ccc3c2=O)c1`, the values for the AC50 at Cytochrome P450 2C19, at Cytochrome P450 2C9 and on Cytochrome P450 3A4 were 25.1 µM (inconclusive), “inconclusive” and 39.8 µM (inconclusive), respectively.

In the case of `C=CCc1cc(OC)ccc1OCCN1CC(C)OC(C)C1` (configuration not stated), the AC50 in [9] was > 30 µM (inactive). Moreover, in data set [10], the IC50 is 70.5 µM (active).

Regarding `Cc1ccc(OCC(=O)NNC(=S)NC(=O)C2CCCCC2)c(C)c1`, the AC50 with HEK293 was 39.5 µM (active).

`Cc1ccc(NC(=O)CSc2nnc(Cn3cnc4ccccc43)o2)c(C)c1`: the IC50 in data set [1] was > 20 µM (inactive); in data set [2], 5.69 µM (active). In addition, the EC50 in data set [3] was > 53 µM (inactive).

Consider `CCCCN(C)C(=O)c1coc(=O)c2ccccc12`, for which the results for the concentration at half-maximal activity (AC50) entry on Cytochrome P450 2C9 and at Cytochrome P450 1A2 were “inconclusive” and 2.51 µM (inconclusive), respectively.

Turning to `O=C1c2ccccc2C(=O)c2cc(N3CCCCC3)ccc21`, the AC50 with HEK293 was 1.3 µM (active).

Regarding `COc1ccccc1CNC(=O)C1CCC(CNS(=O)(=O)c2ccc(F)cc2)CC1` (configuration not stated), the AC50 in data set [9] is > 30 µM (inactive).

Take `COc1ccc(S(=O)(=O)N2CCN(C(S)=NCC3CCCO3)CC2)cc1OC` (configuration not stated): in the data set with HEK293, the AC50 is 268 µM (active).

`COc1cc(OC)nc(Nc2nc(C(N)COCc3ccccc3)cs2)n1` (configuration not stated): the AC50 is 4.17 µM (active) in [11]; 3.75 µM (active) in data set [12]; 28.3 µM (active) in [13]; 5.29 µM (active) in data set [14]; 4.69 µM (active) in data set [15].

As to `Cc1ccc(-c2ccc3c(c2)O[C@H](CN(C)Cc2cccnc2)[C@@H](C)CN([C@H](C)CO)S3(=O)=O)cc1`, the figures for the AC50 in [12], in data set [13] and in data set [14] were 27 µM (active), 13.7 µM (active) and 23.8 µM (active), respectively.

On to `O=C(c1[nH]c(C(F)(F)F)nc1-c1ccccc1)N1CCCN(Cc2ccc(F)cc2)CC1`, for which the AC50 in data set [9] is > 30 µM (inactive).

With `C/C(=N\NC(=O)CNc1cccc2ccccc12)c1ccc(Br)s1`, in the data set with Vero, the CC50 was > 40 µM (active).
